Converted amounts (≈) assume the structure as drawn. Residues, ends and D or L forms follow the SMILES beside them.
How the values were obtained:
Format in all cases: cell-based
[1] = test system: E. faecium 21
Method: (§1) Standard strains included S. aureus ATCC33592, S. aureus CICC25138, and Salmonella enterica ATCC14028, which were purchased from the China Center of Industrial Culture Collection (CICC). Standard strains including E.coli CMCC44102, Salmonella enterica CMCC50071, and S. aureus CMCC26003 were purchased from the National Center for Medical Culture Collections (CMCC). […] All experiments using the above strains were carried out in a BSL‐2 laboratory. The clinical laboratory of Qilu Hospital detected bacterial resistance to various antibiotics. All strains were streaked on Nutrient Broth (NB) agar medium and incubated overnight at 37°C.
(§2) The antimicrobial activity of the peptides was examined in sterile 96‐well plates using the broth microdilution according to the CLSI standard. The colonies were suspended in saline solution, the turbidity was adjusted to McFarland 0.5 to reach a bacterial concentration of 10^8 CFU/mL, and again diluted 100 times for the inhibition test. Then, 50 µL of bacterial suspension at 1 × 10^6 CFU/mL was incubated with the same volume of different concentrations of peptide solution [serial twofold dilutions in Mueller–Hinton Broth (Hopebio)]. […] All experiments were performed with three independent replicates.

[2] = test system: S. aureus 103
Method: as §1, §2

[3] = test system: E. faecium 1042
Method: as §1, §2

[4] = test system: S. aureus CICC25138
Method: as §1, §2

[5] = test system: S. aureus ATCC33592
Method: as §1, §2

[6] = test system: E.coli 208
Method: as §1, §2

[7] = test system: P. aeruginosa 116
Method: as §1, §2

[8] = test system: K. pneumoniae 7713
Method: as §1, §2

[9] = test system: E.coli 110
Method: as §1, §2

[10] = test system: P. aeruginosa 119
Method: as §1, §2

[11] = test system: P. aeruginosa 112
Method: as §1, §2

[12] = test system: S. aureus 129
Method: as §1, §2

[13] = test system: S. aureus CMCC26003
Method: as §1, §2

[14] = test system: E.coli CMCC44102
Method: as §1, §2

Row | SMILES | MIC (μg/mL) E. faecium 21 [1] | MIC (μg/mL) S. aureus 103 [2] | MIC (μg/mL) E. faecium 1042 [3] | MIC (μg/mL) S. aureus CICC25138 [4] | MIC (μg/mL) S. aureus ATCC33592 [5] | MIC (μg/mL) E.coli 208 [6] | MIC (μg/mL) P. aeruginosa 116 [7] | MIC (μg/mL) K. pneumoniae 7713 [8] | MIC (μg/mL) E.coli 110 [9] | MIC (μg/mL) P. aeruginosa 119 [10] | MIC (μg/mL) P. aeruginosa 112 [11] | MIC (μg/mL) S. aureus 129 [12] | MIC (μg/mL) S. aureus CMCC26003 [13] | MIC (μg/mL) E.coli CMCC44102 [14]
1 | CC[C@H](C)[C@H](NC(=O)[C@H](CCCCN)NC(=O)[C@H](Cc1c[nH]c2ccccc12)NC(=O)[C@@H](N)CCCCN)C(=O)N[C@@H](CCCCN)C(=O)N[C@@H](Cc1c[nH]c2ccccc12)C(=O)N[C@@H](Cc1c[nH]cn1)C(=O)N[C@H](C(=O)N[C@@H](CCCNC(=N)N)C(=O)N[C@@H](Cc1c[nH]c2ccccc12)C(=O)N[C@@H](Cc1ccccc1)C(=O)N[C@@H](CCCNC(=N)N)C(=O)N[C@H](C(=O)N[C@@H](CC(C)C)C(N)=O)C(C)C)C(C)C [QLX-3DV-10] (H-KWKIKWHVRWFRVL-NH2) | 8 µg/mL (≈ 4.04 µM) | 8 µg/mL (≈ 4.04 µM) | 8 µg/mL (≈ 4.04 µM) | 32 µg/mL (≈ 16.1 µM) | 16 µg/mL (≈ 8.07 µM) | 32 µg/mL (≈ 16.1 µM) | 8 µg/mL (≈ 4.04 µM) | 16 µg/mL (≈ 8.07 µM) | 32 µg/mL (≈ 16.1 µM) | 64 µg/mL (≈ 32.3 µM) | 32 µg/mL (≈ 16.1 µM) | 16 µg/mL (≈ 8.07 µM) |  | 
2 | CC[C@H](C)[C@H](NC(=O)[C@H](CCCNC(=N)N)NC(=O)[C@H](Cc1c[nH]c2ccccc12)NC(=O)[C@H](CCCCN)NC(=O)[C@H](CCC(N)=O)NC(=O)[C@H](CCCNC(=N)N)NC(=O)[C@@H](N)CCCNC(=N)N)C(=O)N[C@@H](CC(C)C)C(=O)N[C@@H](C)C(=O)N[C@@H](CC(C)C)C(=O)N[C@@H](CC(N)=O)C(=O)N[C@H](C(=O)N[C@@H](Cc1c[nH]c2ccccc12)C(=O)N[C@@H](CCCCN)C(N)=O)[C@@H](C)CC [QLX-3DV-11] (H-RRQKWRILALNIWK-NH2) | 4 µg/mL (≈ 2.13 µM) | 16 µg/mL (≈ 8.51 µM) | 4 µg/mL (≈ 2.13 µM) | 16 µg/mL (≈ 8.51 µM) | 8 µg/mL (≈ 4.25 µM) | 8 µg/mL (≈ 4.25 µM) | 32 µg/mL (≈ 17 µM) | 8 µg/mL (≈ 4.25 µM) | 4 µg/mL (≈ 2.13 µM) | 32 µg/mL (≈ 17 µM) | 4 µg/mL (≈ 2.13 µM) | 4 µg/mL (≈ 2.13 µM) | 2 µg/mL (≈ 1.06 µM) | 4 µg/mL (≈ 2.13 µM)
3 | CC(C)C[C@H](NC(=O)[C@H](Cc1ccccc1)NC(=O)[C@H](CCCCN)NC(=O)[C@H](Cc1c[nH]c2ccccc12)NC(=O)[C@H](Cc1c[nH]c2ccccc12)NC(=O)[C@@H]1CCCN1C(=O)[C@H](CCCNC(=N)N)NC(=O)[C@@H](NC(=O)[C@H](Cc1ccccc1)NC(=O)[C@H](CCCCN)NC(=O)[C@H](CCCNC(=N)N)NC(=O)[C@H](Cc1c[nH]c2ccccc12)NC(=O)[C@H](CCCNC(=N)N)NC(=O)[C@H](CCCCN)NC(=O)[C@H](Cc1ccc(O)cc1)NC(=O)[C@H](CCC(N)=O)NC(=O)[C@@H](N)CCCNC(=N)N)C(C)C)C(=O)N[C@@H](CCCCN)C(=O)N[C@@H](CC(=O)O)C(N)=O [QLX-3DV-14] (H-RQYKRWRKFVRPWWKFLKD-NH2) | 8 µg/mL (≈ 2.94 µM) | 8 µg/mL (≈ 2.94 µM) |  | 32 µg/mL (≈ 11.8 µM) | 8 µg/mL (≈ 2.94 µM) | 16 µg/mL (≈ 5.88 µM) | 32 µg/mL (≈ 11.8 µM) |  | 8 µg/mL (≈ 2.94 µM) | 128 µg/mL (≈ 47 µM) | 4 µg/mL (≈ 1.47 µM) | 16 µg/mL (≈ 5.88 µM) | 8 µg/mL (≈ 2.94 µM) | 4 µg/mL (≈ 1.47 µM)
